Data taken from ChEMBL document CHEMBL6121008, “New series of 3-pyridyl-1,3-thiazoles: In vitro and in vivo anti-Trypanosomatidae profile, in vitro and in silico mechanism of action approach” (Eur J Med Chem, 2025).

Legend:
Leishmania amazonensis [1] = assay: (§1) Antiparasitic activity against Leishmania amazonensis WHOM/00 LTB 0016 promastigote expressing Escherichia coli beta-galactosidase assessed as reduction in parasitic growth using CPRG as substrate preincubated with compound for 72 hrs followed by substrate addition and measured after 10 mins by Spectrophotometric analysis; format: functional, organism-based
[2] = Selectivity index, ratio of CC50 for mouse RAW264.7 cells to IC50 for antiparasitic activity against Leishmania amazonensis WHOM/00 LTB 0016 promastigote expressing Escherichia coli beta-galactosidase; format: toxicity; details: read-out: Selectivity Index
[3] = Cytotoxicity against mouse RAW264.7 cells assessed as inhibition of cell viability incubated for 48 hrs by MTT assay; format: toxicity, cell-based
Leishmania infantum [4] = assay: (§2) Antiparasitic activity against Leishmania infantum amastigote expressing Escherichia coli beta-galactosidase infected in mouse RAW264.7 cells assessed as reduction in parasitic growth using CPRG as substrate preincubated with compound for 24 hrs followed by substrate addition and measured after 2 to 6 hrs by Spectrophotometric analysis; format: functional, organism-based
Leishmania amazonensis [5] = assay: as §2, with “amazonensis” for “infantum”; format: functional, organism-based
[6] = Selectivity index, ratio of CC50 for mouse RAW264.7 cells to IC50 for antiparasitic activity against Leishmania amazonensis amastigote expressing Escherichia coli beta-galactosidase infected in mouse RAW264.7 cells; format: toxicity; details: read-out: Selectivity Index
Leishmania infantum [7] = assay: as §1, with “infantum MHOM/MA/67/ITMAP-263” for “amazonensis WHOM/00 LTB 0016”; format: functional, organism-based
Trypanosoma cruzi [8] = assay: (§3) Antiparasitic activity against amastigote form of Trypanosoma cruzi Tulahuen expressing Escherichia coli beta-galactosidase infected in mouse L929 cells assessed as reduction in parasitic growth using CPRG as substrate pretreated with compound for 96 hrs followed by substrate addition and measured after 16 to 20 hrs by Spectrophotometric analysis; format: functional, organism-based
[9] = Selectivity index, ratio of CC50 for mouse RAW264.7 cells to IC50 for antiparasitic activity against Leishmania infantum amastigote expressing Escherichia coli beta-galactosidase infected in mouse RAW264.7 cells; format: toxicity; details: read-out: Selectivity Index
[10] = Selectivity index, ratio of CC50 for mouse RAW264.7 cells to IC50 for antiparasitic activity against Leishmania infantum MHOM/MA/67/ITMAP-263 promastigote expressing Escherichia coli beta-galactosidase; format: toxicity; details: read-out: Selectivity Index
Trypanosoma cruzi [11] = assay: as §3, with “trypomastigote” for “amastigote”; format: functional, organism-based
[12] = Cytotoxicity against mouse L929 cells assessed as inhibition of cell viability incubated for 96 hrs by MTT assay; format: toxicity, cell-based
[13] = Selectivity index, ratio of CC50 for mouse L929 cells to IC50 for antiparasitic activity against trypomastigote and amastigote form of Trypanosoma cruzi Tulahuen expressing Escherichia coli beta-galactosidase infected in mouse L929 cells; format: toxicity; details: read-out: Selectivity Index
Trypanosoma cruzi [14] = assay: Antiparasitic activity against trypomastigote form of Trypanosoma cruzi Y assessed as appearance of twisted bodies by Electron micrographic analysis; format: functional, organism-based
[15] = Leishmania amazonensis, WHOM/00 LTB 0016, read-out: IC50
[16] = Leishmania amazonensis, RAW264.7, read-out: IC50
[17] = Leishmania infantum, RAW264.7, read-out: IC50
[18] = Leishmania infantum, MHOM/MA/67/ITMAP-263, read-out: IC50

Row | IC50 (Trypanosoma cruzi [8]) [µM] | IC50 (Trypanosoma cruzi [11]) [µM] | SMILES | IC50 (Leishmania amazonensis [1]; [15]) [µM] | selectivity ratio [2] | CC50 at 48 h [3] [µM] | IC50 (Leishmania infantum [4]; raw264.7) | IC50 (Leishmania amazonensis [5]; [16]) [µM] | selectivity ratio [6] | IC50 (Leishmania infantum [7]) | selectivity ratio [9] | IC50 (Leishmania infantum [4]; [17]) [µM] | selectivity ratio [10] | CC50 at 96 h [12] [µM] | selectivity ratio [13] | IC50 (Leishmania infantum [7]; [18]) [µM] | IC50 (Leishmania amazonensis [1]) | IC50 (Leishmania amazonensis [5]; raw264.7) | Activity (Trypanosoma cruzi [14])
1 | – | – | CNC(=S)N/N=C(\C)c1cccnc1 | 339 | 0.4 | 148 | Not_active | 183 | 0.8 | Not_active | – | – | – | – | – | – | – | – | –
2 | 3.7 | 3.7 | C/C(=N\N=c1\scc(-c2ccc(F)cc2)n1C)c1cccnc1 | 32.7 | 0.5 | 15 | – | 17.4 | 0.9 | – | 1.2 | 12.5 | 0.7 | 15.6 | 4.2 | 21.1 | – | – | –
3 | 59.4 | 59.4 | C/C(=N\N=c1/[nH]c(-c2ccc([N+](=O)[O-])cc2)cs1)c1cccnc1 | – | – | 63.6 | – | 295 | 0.2 | Not_active | 1.4 | 45.6 | – | > 295 | > 5 | – | Not_active | – | –
4 | – | – | C/C(=N\NC(=S)Nc1ccccc1)c1cccnc1 | 7 | 13.7 | – | – | – | – | – | 4.5 | 21.1 | 4.4 | – | – | 21.8 | – | – | –
5 | 2.5 | 2.5 | C/C(=N\N=c1\scc(-c2ccc([N+](=O)[O-])cc2)n1C)c1cccnc1 | 168 | 0.2 | 41.2 | Not_active | – | – | – | – | – | 0.2 | 88.6 | 35.4 | 200 | – | Not_active | –
6 | 3.4 | 3.4 | C/C(=N\N=c1\scc(-c2ccc(C)cc2)n1-c1ccccc1)c1cccnc1 | 4.4 | 4.2 | 18.7 | – | 7.3 | 2.6 | – | 1.2 | 16.1 | 1.3 | 7.3 | 2.1 | 14.8 | – | – | –
7 | < 0.2 | < 0.2 | COc1ccc(-c2cs/c(=N/N=C(\C)c3cccnc3)n2-c2ccccc2)cc1 | 5.2 | 4.2 | 22 | – | 6 | 3.7 | – | 2.3 | 9.5 | 1.3 | 5.2 | > 26 | 16.7 | – | – | –
8 | – | – | C/C(=N\NC(N)=S)c1cccnc1 | – | – | 213 | – | 275 | 0.8 | Not_active | 1.3 | 163 | – | – | – | – | Not_active | – | –
9 | 2.9 | 2.9 | C/C(=N\N=c1\scc(-c2cccc([N+](=O)[O-])c2)n1-c1ccccc1)c1cccnc1 | 6.5 | > 37 | > 240 | – | 9.4 | > 25.6 | – | > 20.8 | 11.5 | > 10.3 | 18.3 | 6.3 | 23.3 | – | – | –
10 | 5.7 | 5.7 | C/C(=N\N=c1\scc(-c2ccccc2)n1-c1ccccc1)c1cccnc1 | 15.4 | 1.9 | 29.4 | – | 13.5 | 2.2 | – | 3.3 | 8.9 | 0.9 | 11.6 | 2 | 31 | – | – | –
11 | 4.9 | 4.9 | C/C(=N\N=c1\scc(-c2ccc(C)cc2)n1C)c1cccnc1 | 75.5 | 0.5 | 36.2 | – | 31 | 1.2 | – | 2 | 18 | 0.7 | 23 | 4.7 | 53.7 | – | – | –
12 | 1 | 1 | C/C(=N\N=c1\scc(-c2cccc([N+](=O)[O-])c2)n1C)c1cccnc1 | – | – | 17.5 | – | – | – | Not_active | 0.5 | 33.3 | – | 13.3 | 13.3 | – | Not_active | Not_active | –
13 | 7.5 | 7.5 | C/C(=N\N=c1\scc(-c2ccc(F)cc2)n1-c1ccccc1)c1cccnc1 | 7.2 | 5.7 | 41.2 | – | 6.7 | 6.1 | – | 3.8 | 10.8 | 1.4 | 14.4 | 1.9 | 29.9 | – | – | –
14 | – | – | C[C@@H]1[C@H](O)[C@@H](C)/C=C/C=C/C=C/C=C/C=C/C=C/C=C/[C@H](O[C@@H]2O[C@H](C)[C@@H](O)[C@H](N)[C@@H]2O)C[C@@H]2O[C@](O)(C[C@@H](O)C[C@@H](O)[C@H](O)CC[C@@H](O)C[C@@H](O)CC(=O)O[C@H]1C)C[C@H](O)[C@H]2C(=O)O [AMPHOTERICIN B] | 0.1 | 35 | 3.5 | – | 0.04 | 87.5 | – | 58.3 | 0.06 | 17.5 | – | – | 0.2 | – | – | –
15 | – | – | CCCCCCCCCCCCCCCCOP(=O)([O-])OCC[N+](C)(C)C [MILTEFOSINE] | – | 6.8 | – | – | 1.7 | 13.1 | – | 12.7 | 1.7 | 6.8 | – | – | 3.2 | – | – | –
16 | 2.9 | 2.9 | C/C(=N\N=c1\scc(-c2ccc([N+](=O)[O-])cc2)n1-c1ccccc1)c1cccnc1 | 18.5 | 1.2 | 22.1 | – | 7.7 | 2.9 | – | 2.4 | 9.1 | 0.2 | 25.8 | 8.9 | 118 | – | – | –
17 | 3.9 | 3.9 | C/C(=N\N=c1/[nH]c(-c2ccc(C)cc2)cs1)c1cccnc1 | > 324 | < 0.1 | 25 | Not_active | 33.1 | 0.8 | Not_active | – | – | – | 293 | 75.1 | – | – | – | Dose-dependent-effect
18 | 2 | 2 | COc1ccc(-c2cs/c(=N/N=C(\C)c3cccnc3)n2C)cc1 | 38.7 | 0.4 | 14.7 | – | 14.8 | 1 | – | 1.2 | 12.4 | 0.7 | 6.2 | 3.1 | 20.1 | – | – | –
19 | 3.8 | 3.8 | C/C(=N\N=c1/[nH]c(-c2ccc(F)cc2)cs1)c1cccnc1 | – | – | 52.3 | Not_active | 44.7 | 0.6 | Not_active | – | – | – | > 320 | > 84.2 | – | Not_active | – | –
